{"source": "patent US20170363612A1", "about": "“COMPOSITIONS AND METHODS RELATING TO PROLIFERATIVE DISORDERS” (Wayne State University, priority 2014, published 2017)", "key": {"[1]": {"system": "SET Ribosome"}, "[2]": {"system": "HCT116 hTRdm-fLUC#32 tumors", "format": "in vivo, nude mice", "conditions": "cremophorEL 0.5 mg/kg/day Q2Dx5; cyclophosphamide 120 mg/kg/day Q4Dx3; IV"}, "[3]": {"system": "SET Ribosome", "format": "in vivo, nude mice", "conditions": "individual animals; for % Induction: post- vs pre-treatment"}, "[4]": {"conditions": "in vivo, cited from earlier work"}, "[5]": {"system": "HCT116 hTRdm-fLUC#32 tumors", "conditions": "for Tumor Regression during Treatment, Average / Tumor Regression during Treatment, Mean: oral daily 10 days, Cape 400 mg/kg/day"}, "[6]": {"system": "HCT116 hTRdm-fLUC#32 tumors", "conditions": "for Tumor Regression during Treatment, Average / Tumor Regression during Treatment, Mean: oral daily 18 days, Cape 500 mg/kg/day, anisomycin L 0.000027, H 0.000054 mg/kg/day"}, "[7]": {"system": "SET Ribosome", "assay": "Cobalt chloride Dose-dependent Modifier Assay, HEK293 mTRdm-fLUC#12", "format": "cell-based, human", "conditions": "6 hours"}, "[8]": {"system": "SET Ribosome", "assay": "TPA Reference Standard Response Modifier Assay with ribosome binding translation inhibitors, HEK293 hTRdm-fLUC#13", "format": "cell-based, human", "conditions": "with 100 nM TPA; 6 hours"}, "[9]": {"system": "SET Ribosome", "assay": "Rapamycin dose response and TPA+Taxol Modifier Assay, MCF7 TR Cell Panel", "method": "To tease apart the growth and stress responses, cells were treated with varying doses of rapamycin, incubated at 37° C. for 6 hours, and assayed for fLuc activity.\nIn other studies, the effects of different rapamycin concentrations were measured in combination with the TPA+Taxol Reference Standard response in the MCF7 derived cell lines that express the fLuc reporter either constitutively (CMV lines) or as a part of the TR Expression Cassette (hTR and mTR lines). […] Cells were treated with 100 nM TPA, 500 nM paclitaxel, and varying concentrations of rapamycin, incubated at 37° C. for 6 hours, and assayed for fLuc activity.\nSelect members of the MCF7 TR Cell Panel were plated into 96-well microtiter plates and processed as described for a Cell Count Dose-dependent Modifier protocol. Rapamycin concentrations were tested for an ability to alter the Reference Standard responses produced by a 100 nM TPA/500 nM paclitaxel combination. Rapamycin was applied at doses ranging from 1 nM to 1 μM concentrations. All dilutions were prepared in complete growth media. Cells were incubated for 6 hrs, processed, and assayed for luciferase activity as described."}, "[10]": {"conditions": "single listed concentration: dbcAMP 5 mM, TPA 100 nM, Paclitaxel 500 nM, MG132 50 uM, Colchicine 1 uM, MRA 150 nM, Bortezomib 50 nM"}, "[11]": {"conditions": "MCF7 TR Class 3/4 lines, 100 nM TPA + 500 nM paclitaxel, 6 hours"}}, "note": "“And” between values parts separate entries of the source, which are not always exact repeats. Equal entries are not always repeated. “Also recorded” adds a separate entry of the source. Where two headings read alike, the source gives them in different places. Marks after values point to notes of the source that are not given here. Residues, ends and D or L forms follow the SMILES beside them. *: point of attachment. Cbz = O=C(OCc1ccccc1)*", "data": [{"compound": "CC(C)C[C@H](NC(=O)[C@H](Cc1ccccc1)NC(=O)c1cnccn1)B(O)O", "note": "[Bortezomib (Velcade), [(1R)-3-methyl-1-[[(2S)-1-oxo-3-phenyl-2-[(pyrazinylcarbonyl)amino]propyl]amino]butyl] boronic acid]", "values": [{"measurement": "SET Response", "setting": "[1]; [10]", "result": "Antagonist/; also recorded: Agonist"}]}, {"compound": "CNc1ccc2oc(C[C@H]3O[C@@]4(CC[C@H]3C)O[C@H]([C@H](C)C(=O)c3ccc[nH]3)[C@H](C)C[C@H]4C)nc2c1C(=O)O", "note": "[Calon, Calcimycin]", "values": [{"measurement": "SET Response", "setting": "[1]", "result": "Antagonist; also recorded: Agonist"}]}, {"compound": "COc1cc2c(c(OC)c1OC)-c1ccc(OC)c(=O)cc1[C@@H](NC(C)=O)CC2", "note": "[Colchicine, N-[(7S)-1,2,3,10-tetramethoxy-9-oxo-5,6,7,9-tetrahydrobenzo[a]heptalen-7-yl]acetamide]", "values": [{"measurement": "SET Response", "setting": "[1]", "result": "Agonist"}]}, {"compound": "O=P1(N(CCCl)CCCl)NCCCO1", "note": "(stereo not shown) [Cyclophosphamide, RS-N,N-bis(2-chloroethyl)-1,3,2-oxazaphosphinan-2-amine 2-oxide]", "values": [{"measurement": "effect on tumor growth", "setting": "[2]", "result": "slowed tumor growth"}, {"measurement": "6 hr Post-treatment Value (bioluminescence signal intensity)", "setting": "[3]; IV, CremophorEL 0.5 mg/kg, paclitaxel 20 mg/kg, cyclophosphamide 120 mg/kg, average tumor size 125 mg", "result": "38.6 ×10e6 photons and 50.4 ×10e6 photons and 101.0 ×10e6 photons and 39.3 ×10e6 photons and 82.5 ×10e6 photons and 56.8 ×10e6 photons"}, {"measurement": "6 hr Post-treatment Value (bioluminescence signal intensity)", "setting": "[3]; average tumor size 500 mg", "result": "75.0 ×10e6 photons and 81.5 ×10e6 photons and 48.8 ×10e6 photons"}, {"measurement": "% Induction", "setting": "[3]; average tumor size 125 mg", "result": "12,866.7% *** and 381.8% and 167.2% and 13,100.0% *** and 373.3% and 18,933.3% ***"}, {"measurement": "% Induction", "setting": "[3]; average tumor size 500 mg", "result": "204.9% and 368.8% and 109.7%"}, {"measurement": "elimination half-life", "setting": "[4]; po", "result": "3 to 12", "unit": "h"}, {"measurement": "oral bioavailability", "setting": "[4]; po", "result": "> 75", "unit": "%"}, {"measurement": "dose excreted in the urine as unchanged drug", "setting": "[4]", "result": "5-25%"}]}, {"compound": "CC(C)C[C@@H](C=O)NC(=O)[C@H](CC(C)C)NC(=O)[C@H](CC(C)C)NC(=O)OCc1ccccc1", "note": "[MG132, Z-Leu-Leu-Leu-aldehyde] (Cbz-Leu-Leu-Leu-aldehyde)", "values": [{"measurement": "SET Response", "setting": "[1]", "result": "Antagonist/; also recorded: Agonist"}]}, {"compound": "CC(=O)O[C@H]1C(=O)[C@@]2(C)[C@H]([C@H](OC(=O)c3ccccc3)[C@]3(O)C[C@H](OC(=O)[C@H](O)[C@@H](NC(=O)c4ccccc4)c4ccccc4)C(C)=C1C3(C)C)[C@]1(OC(C)=O)CO[C@@H]1C[C@@H]2O", "note": "[Paclitaxel, 5β,20-epoxy-1,2α,4,7β,10β,13α-hexahydroxytax-1-1-en-9-14,10-diacetate 2-benzoate 13-ester with (2R,3S)-N-benzoyl-3-phenylisoserine]", "values": [{"measurement": "SET Response", "setting": "[1]; [10]", "result": "Agonist"}]}, {"compound": "CCCCCOC(=O)Nc1nc(=O)n([C@@H]2O[C@H](C)[C@@H](O)[C@H]2O)cc1F", "note": "[capecitabine, pentyl [1-(3,4-dihydroxy-5-methyltetrahydrifuran-2-yl)-5-fluoro-2-oxo-1H-pyrimidine-4-yl]carbamate]", "values": [{"measurement": "survival mean", "setting": "[5]; Example 3 text on FIG. 16", "result": 47, "unit": "days"}, {"measurement": "sacrifice mean", "setting": "[5]; Kaplan-Meier, FIG. 16 description", "result": 47, "unit": "days"}, {"measurement": "Tumor Regression during Treatment, Average", "setting": "[5]", "result": 35.2, "unit": "%"}, {"measurement": "Tumor Regression during Treatment, Mean", "setting": "[5]", "result": 35.2, "unit": "%"}, {"measurement": "Tumor Regression during Treatment, Average", "setting": "[5]; listed as Cape", "result": 29.4, "unit": "%"}, {"measurement": "Tumor Regression during Treatment, Mean", "setting": "[5]; listed as Cape", "result": 35.2, "unit": "%"}, {"measurement": "time of maximal metabolite concentration in the plasma", "setting": "[4]; iv", "result": "2 to 3", "unit": "h"}, {"measurement": "Animal weight averages, day 7", "setting": "[6]; mouse, in vivo", "result": 20.88, "unit": "g"}, {"measurement": "Animal weight averages, day 10", "setting": "[6]; mouse, in vivo", "result": 20.88, "unit": "g"}, {"measurement": "Animal weight averages, day 13", "setting": "[6]; mouse, in vivo", "result": 20.36, "unit": "g"}, {"measurement": "Animal weight averages, day 15", "setting": "[6]; mouse, in vivo", "result": 19.38, "unit": "g"}, {"measurement": "Animal weight averages, day 18", "setting": "[6]; mouse, in vivo", "result": 18.50, "unit": "g"}, {"measurement": "Animal weight averages, day 24", "setting": "[6]; mouse, in vivo", "result": 19.56, "unit": "g"}, {"measurement": "Animal weight averages, day 31", "setting": "[6]; mouse, in vivo", "result": 21.17, "unit": "g"}, {"measurement": "Animal weight averages, day 35", "setting": "[6]; mouse, in vivo", "result": 22.32, "unit": "g"}, {"measurement": "Animal weight averages, day 38", "setting": "[6]; mouse, in vivo", "result": 22.99, "unit": "g"}, {"measurement": "spontaneous death", "setting": "[6]; mouse, in vivo", "result": "one"}, {"measurement": "survival mean", "setting": "[6]; mouse, in vivo", "result": 24, "unit": "days"}, {"measurement": "Tumor Regression during Treatment, Average", "setting": "[6]", "result": 53.2, "unit": "%"}, {"measurement": "Tumor Regression during Treatment, Mean", "setting": "[6]", "result": 56, "unit": "%"}, {"measurement": "Tumor Regression during Treatment, Average", "setting": "[6]; listed as Cape", "result": 53.2, "unit": "%"}, {"measurement": "Tumor Regression during Treatment, Mean", "setting": "[6]; listed as Cape", "result": 56.0, "unit": "%"}]}, {"compound": "[Cl-].[Cl-].[Co+2]", "note": "[cobalt(II) chloride]", "values": [{"measurement": "doses repressing background SET Ribosome activity", "setting": "[7]; cobalt applied alone", "result": "> 50", "unit": "µM"}, {"measurement": "doses inhibiting TPA SET activation", "setting": "[7]; with 100 nM TPA", "result": "> 200", "unit": "µM"}, {"measurement": "doses inhibiting TPA SET activation", "setting": "[7]; with 100 nM TPA, listed as CoCl2", "result": "≥ 200", "unit": "µM"}, {"measurement": "IC50", "setting": "[7]; with 100 nM TPA, read-out: IC50, inhibition of SET activity in cells treated with TPA", "result": "~1000", "unit": "µM"}, {"measurement": "doses inhibiting SET Ribosome activation by paclitaxel (Taxol)", "setting": "[7]; with paclitaxel Reference Standard", "result": "> 50", "unit": "µM"}, {"measurement": "doses inhibiting SET Ribosome activation by paclitaxel (Taxol)", "setting": "[7]; with paclitaxel Reference Standard, listed as CoCl2", "result": "≥ 50", "unit": "µM"}, {"measurement": "IC50", "setting": "[7]; with paclitaxel Reference Standard, read-out: IC50, inhibition of SET Ribosome activation by paclitaxel", "result": "~200", "unit": "µM"}]}, {"compound": "C[C@@H]1C[C@@H]([C@H](O)CC2CC(=O)NC(=O)C2)C(=O)[C@@H](C)C1", "note": "[cycloheximide]", "values": [{"measurement": "IC100 (100% SET Ribosome inhibition)", "setting": "[8]", "result": "> 10", "unit": "µM"}]}, {"compound": "COc1ccc(C[C@H](N)C(=O)N[C@H]2[C@@H](O)[C@H](n3cnc4c(N(C)C)ncnc43)O[C@@H]2CO)cc1", "note": "[puromycin]", "values": [{"measurement": "IC100 (100% SET Ribosome inhibition)", "setting": "[8]", "result": "> 25", "unit": "µM"}]}, {"compound": "CO[C@H]1C[C@@H]2CC[C@@H](C)[C@@](O)(O2)C(=O)C(=O)N2CCCC[C@H]2C(=O)O[C@H]([C@H](C)C[C@@H]2CC[C@@H](O)[C@H](OC)C2)CC(=O)[C@H](C)/C=C(\\C)[C@@H](O)[C@@H](OC)C(=O)[C@H](C)C[C@H](C)/C=C/C=C/C=C/1C", "note": "[rapamycin]", "values": [{"measurement": "concentrations giving SET decline in TPA+Taxol treated samples", "setting": "[9]; [11]", "result": "≥ 100", "unit": "nM"}, {"measurement": "dose up to which SET of TPA+Taxol treated samples is super-induced", "setting": "[9]; [11]", "result": "≤ 50", "unit": "nM"}, {"measurement": "dose giving a spike in fLuc activity", "setting": "[9]; MCF7 TR Class 3/4 lines, rapamycin alone, 6 hours", "result": 50, "unit": "nM"}, {"measurement": "doses at which the magnitude of SET is reduced but not eliminated", "setting": "[9]; MCF7 cells, 6 hrs", "result": "> 50", "unit": "nM"}]}, {"compound": "polyoxyl 35 castor oil [cremophorEL]", "values": [{"measurement": "Animal weight averages, day 7", "setting": "[6]; mouse, in vivo", "result": 22.25, "unit": "g"}, {"measurement": "Animal weight averages, day 10", "setting": "[6]; mouse, in vivo", "result": 22.39, "unit": "g"}, {"measurement": "Animal weight averages, day 13", "setting": "[6]; mouse, in vivo", "result": 22.23, "unit": "g"}, {"measurement": "Animal weight averages, day 15", "setting": "[6]; mouse, in vivo", "result": 21.60, "unit": "g"}, {"measurement": "Animal weight averages, day 18", "setting": "[6]; mouse, in vivo", "result": 21.93, "unit": "g"}, {"measurement": "Animal weight averages, day 24", "setting": "[6]; mouse, in vivo", "result": 21.59, "unit": "g"}, {"measurement": "Animal weight averages, day 31", "setting": "[6]; mouse, in vivo", "result": 20.22, "unit": "g"}]}]}
